Test results reported in PMC4594923, “Food Polyphenols Fail to Cause a Biologically Relevant Reduction of COX-2 Activity” (PLoS ONE, 2015).
Marks after values point to notes of the source that are not given here.

Legend:
COX–2 protein = details: cited from earlier work
[1] = test system: arachidonic acid (AA) cascade; assay: liver tissue oxylipin/PG levels in LPS induced sepsis in mice; assay type: in vivo, C57BL/6N mice; details: liver tissue 24 h after LPS treatment
ovine recombinant COX–1 = molecular target: T1, ovine recombinant COX–1 (Ovis aries, UniProt P05979); assay: cell-free COX–1 enzyme assay (PGE2 formation, LC-MS); assay type: biochemical; parameters: purchased Cayman Chemicals/ Biomol, Hamburg, Germany
T1 sequence (P05979 25-600): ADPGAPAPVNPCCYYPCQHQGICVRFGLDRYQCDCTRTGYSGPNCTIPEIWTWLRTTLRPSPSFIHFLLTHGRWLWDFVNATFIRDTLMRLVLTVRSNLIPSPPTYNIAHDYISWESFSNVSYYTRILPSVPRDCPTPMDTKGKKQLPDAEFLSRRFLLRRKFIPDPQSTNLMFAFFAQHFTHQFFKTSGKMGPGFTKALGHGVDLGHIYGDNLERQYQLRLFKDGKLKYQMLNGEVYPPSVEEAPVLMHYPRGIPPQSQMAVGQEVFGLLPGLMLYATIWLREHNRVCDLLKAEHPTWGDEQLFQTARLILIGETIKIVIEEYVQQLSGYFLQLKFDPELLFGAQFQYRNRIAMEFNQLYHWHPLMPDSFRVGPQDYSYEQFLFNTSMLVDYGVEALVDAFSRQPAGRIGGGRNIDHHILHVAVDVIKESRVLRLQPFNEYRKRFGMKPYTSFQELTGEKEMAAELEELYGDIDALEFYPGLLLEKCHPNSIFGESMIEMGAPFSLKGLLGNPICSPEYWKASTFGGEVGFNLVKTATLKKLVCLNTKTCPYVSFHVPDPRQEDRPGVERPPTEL

COX–2 = details: read-out: IC50, RAW 264.7 cells; cited from earlier work

O=c1cc(-c2ccc(O)cc2)oc2cc(O)cc(O)c12 [Apigenin, apigenin]
COX–2 (protein) levels, RAW 264.7 cells (COX–2 protein): reduced COX–2 levels
decreased PGE2 formation in comparison to the control, COX–1 (ovine recombinant COX–1; 100 μM): 31%
inhibition, COX–1 enzyme assay (ovine recombinant COX–1; up to 100 μM): inhibition < 50%(up to 100 μM)
